Measured values as given in US8399444B2, “Bicyclic imidazole as DP1 receptor antagonists” (GlaxoSmithKline Intellectual Property Development Ltd., priority 2008, dated 2013).
Where “and” joins values, the source holds several entries; their conditions need not be identical. Identical values can stand only once. Counter-ions that a name gives are not always drawn.

These compounds were tested against T1, Prostanoid DP1 receptor (Homo sapiens, UniProt Q13258) (assay: Measurement of cAMP using TR-FRET LANCE assay: Prostanoid DP1). Conditions: CHO cells expressing DP1 receptor, antagonism of PGD2 (EC80) cAMP response; read-out: pKi value (converted).
T1 construct: expressed in transfected cells; host or cells: CHO K1
T1 sequence (Q13258 1-359): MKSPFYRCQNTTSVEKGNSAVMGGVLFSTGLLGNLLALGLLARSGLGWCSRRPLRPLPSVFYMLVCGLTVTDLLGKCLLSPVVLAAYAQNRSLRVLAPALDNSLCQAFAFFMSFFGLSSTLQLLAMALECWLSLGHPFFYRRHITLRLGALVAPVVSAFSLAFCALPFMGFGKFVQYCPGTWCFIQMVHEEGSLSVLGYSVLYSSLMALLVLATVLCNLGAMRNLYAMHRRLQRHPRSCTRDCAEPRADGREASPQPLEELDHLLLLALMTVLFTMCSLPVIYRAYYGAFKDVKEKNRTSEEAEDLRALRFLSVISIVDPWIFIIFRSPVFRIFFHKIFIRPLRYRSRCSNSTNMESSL
Assay type: cell-based
Description: CHO K1 cells, stably expressing the Prostanoid DP1 receptor, were maintained in culture in DMEM/F12, supplemented with 5% FBS, 2 mM L-glutamine, 400 μg/mL hygromycin B in 95%: 5% air: CO2 at 37° C. Following harvest from culture, cells were centrifuged at 250 g at 4° C. for 10 minutes and re-suspended in ice cold dialysed FCS. Once the cells were in mono-suspension they were slowly mixed with an equal volume of ice cold 80% dialysed FCS: 20% DMSO (pre-mixed and chilled several hours earlier). The cells were then aliquoted into 1 mL tubes within a 96 well block (pre-cooled to 4° C.). Once sealed, the tubes were frozen in a controlled rate freezer. The frozen cells were then transferred to a −140° C. freezer for long term storage.
Measurement of cAMP Using TR-FRET LANCE™ Assays: Prostanoid DP1
The potency of the compounds were determined using a LANCE™ cAMP assay kit as per the kit instructions. Briefly, CHO cells expressing DP1 receptor were thawed at 37° C., diluted in PBS and centrifuged at 1000 RPM for 5 minutes. Cells were then re-suspended (2 million cells/mL) in stimulation buffer (HBSS containing 0.01% BSA, 500 μM FAC IBMX, 5 mmol/L HEPES adjusted to pH 7.4 with KOH.
Briefly, cells were added (10,000 cells/well at 5 μL addition) to low volume white Greiner polypropylene 384-well plate assay plates containing 0.1 μl test compound. Following a 15 minute incubation at room temperature, 5 μl of antibody solution (stimulation buffer containing Alexia fluor 647) containing PGD2 at twice the determined EC80 concentration was added. Plates were incubated for a further 30 minutes at room temperature then detection mixture was added (kit components; detection buffer, europiumW8044-labelled streptavidin and biotin cAMP at 10 μl/well). Plates were covered and incubated the room temperature for 1 hour before reading on a Viewlux Microplate Imager using TR-FRET label settings.
All compounds were dissolved in DMSO at a concentration of 10 mM and were prepared in 100% DMSO using a 1 in 4 dilution step to provide 11-point concentration—response curves. The dilutions were transferred to the assay plates ensuring that the DMSO concentration was constant across the plate at 1% for all assays.
All data were normalised to the mean of 16 high and 16 low control wells on each plate. A four parameter curve fit of the following form was then applied.
Where a is the minimum, b is the Hill slope, c is the XC50, and d is the maximum. Data are presented as the mean pXC50 (negative log 10 of the molar XC50) with the standard deviation (SD) of number of tests in the experiments.

| Ki | Structure (SMILES) |
| --- | --- |
| ≤ 0.1 µM | CC(C)c1nc2c(n1Cc1ccc(Cl)c(Cl)c1)C(OCC(=O)O)CCCC2 (single isomer, unassigned; isomer 1) [Example 36, {[3-[(3,4-dichlorophenyl)methyl]-2-(1-methylethyl)-3,4,5,6,7,8-hexahydrocyclohepta[d]imidazol-4-yl]oxy}acetic acid ammonia salt (Isomer 1)] |
| ≤ 0.1 µM | CC(C)c1nc2c(n1Cc1ccc(Cl)c(Cl)c1)C(CC(=O)O)CCCC2 (single isomer, unassigned; isomer 2) [Example 5, [3-[(3,4-dichlorophenyl)methyl]-2-(1-methylethyl)-3,4,5,6,7,8-hexahydrocyclohepta[d]imidazol-4-yl]acetic acid (isomer 2)] |
| ≤ 0.01 µM | CC(C)c1nc2c(n1Cc1ccc(Cl)cc1)C(CC(=O)O)CCC2 (single isomer, unassigned; isomer 2) [Example 17, (−)-[1-[(4-chlorophenyl)methyl]-2-(1-methylethyl)-4,5,6,7-tetrahydro-1H-benzimidazol-7-yl]acetic acid ammonia salt (Isomer 2)] |
| ≤ 0.01 µM | CC(C)c1nc2c(n1Cc1ccc(Cl)cc1)C(OCC(=O)O)CCC2 (single isomer, unassigned; isomer 2) [Example 26, {[1-[(4-chlorophenyl)methyl]-2-(1-methylethyl)-4,5,6,7-tetrahydro-1H-benzimidazol-7-yl]oxy}acetic acid formic acid salt (isomer 2)] |
| ≤ 0.01 µM | CC(C)c1nc2c(n1Cc1ccc(Cl)cc1)C(CC(=O)O)CCC2 (single isomer, unassigned; isomer 2) [Example 32, (−)-[1-[(4-chlorophenyl)methyl]-2-(1-methylethyl)-4,5,6,7-tetrahydro-1H-benzimidazol-7-yl]acetic acid (Isomer 2)] |
| ≤ 0.01 µM | CC(C)c1nc2c(n1Cc1ccc(Cl)c(Cl)c1)C(OCC(=O)O)CCCC2 (single isomer, unassigned; isomer 2) [Example 37, {[3-[(3,4-dichlorophenyl)methyl]-2-(1-methylethyl)-3,4,5,6,7,8-hexahydrocyclohepta[d]imidazol-4-yl]oxy}acetic acid ammonia salt (Isomer 2)] |
| ≤ 0.01 µM | CC(C)c1nc2c(n1Cc1ccc(Cl)cc1)C(CC(=O)O)CCCC2 (stereo not drawn) [Example 1, [3-[(4-chlorophenyl)methyl]-2-(1-methylethyl)-3,4,5,6,7,8-hexahydrocyclohepta[d]imidazol-4-yl]acetic acid] |
| ≤ 0.1 µM | CC(C)c1nc2c(n1Cc1ccc(Cl)cc1)C(OCC(=O)O)CCCC2 (stereo not drawn) [Example 2] |
| ≤ 0.01 µM | CC(C)c1nc2c(n1Cc1ccc(Cl)c(Cl)c1)C(CC(=O)O)CCCC2 (stereo not drawn) [Example 3, [3-[(3,4-dichlorophenyl)methyl]-2-(1-methylethyl)-3,4,5,6,7,8-hexahydrocyclohepta[d]imidazol-4-yl]acetic acid ammonia salt] |
| ≤ 0.1 µM | CC(C)c1nc2c(n1Cc1ccc(Cl)cc1)C(CC(=O)O)CC2 (stereo not drawn) [Example 7, [3-[(4-chlorophenyl)methyl]-2-(1-methylethyl)-3,4,5,6-tetrahydrocyclopenta[d]imidazol-4-yl]acetic acid ammonia salt] |
| ≤ 0.01 µM | CC(C)c1nc2c(n1Cc1ccc(Cl)cc1)C(CC(=O)O)CCC2 (stereo not drawn) [Example 15, [1-[(4-chlorophenyl)methyl]-2-(1-methylethyl)-4,5,6,7-tetrahydro-1H-benzimidazol-7-yl]acetic acid] |
| ≤ 0.1 µM | CC(C)c1nc2c(n1Cc1ccc(Cl)cc1)C(OCC(=O)O)CCC2 (stereo not drawn) [Example 24, {[1-[(4-chlorophenyl)methyl]-2-(1-methylethyl)-4,5,6,7-tetrahydro-1H-benzimidazol-7-yl]oxy}acetic acid, formic acid salt] |
| ≤ 0.1 µM | CC(C)c1nc2c(n1Cc1ccc(Cl)cc1)C(CC(=O)O)CCC2 (stereo not drawn) [Example 27, [1-[(4-chlorophenyl)methyl]-2-(1-methylethyl)-4,5,6,7-tetrahydro-1H-benzimidazol-7-yl]acetic acid ammonia salt] |

Further lines, the compound ahead of its results:

| Structure (SMILES) | Ki |
| --- | --- |
| CC(C)c1nc2c(n1Cc1ccc(Cl)c(Cl)c1)C(CC(=O)O)CCCC2 (single isomer, unassigned; isomer 1) [Example 4, (+)-[3-[(3,4-dichlorophenyl)methyl]-2-(1-methylethyl)-3,4,5,6,7,8-hexahydrocyclohepta[d]imidazol-4-yl]acetic acid (isomer 1)] | ≤ 0.01 µM |
| CC(C)c1nc2c(n1Cc1ccc(Cl)c(Cl)c1)C(CC(=O)O)CC2 (single isomer, unassigned; isomer 1) [Example 10, (+)-[3-[(3,4-dichlorophenyl)methyl]-2-(1-methylethyl)-3,4,5,6-tetrahydrocyclopenta[d]imidazol-4-yl]acetic acid ammonia salt (Isomer 1)] | ≤ 0.01 µM |
| CC(C)c1nc2c(n1Cc1ccc(Cl)c(Cl)c1)C(CC(=O)O)CC2 (single isomer, unassigned; isomer 2) [Example 11, [3-[(3,4-dichlorophenyl)methyl]-2-(1-methylethyl)-3,4,5,6-tetrahydrocyclopenta[d]imidazol-4-yl]acetic acid ammonia salt (Isomer 2)] | ≤ 0.1 µM |
| CC(C)c1nc2c(n1Cc1ccc(Cl)c(Cl)c1)C(CC(=O)O)CCC2 (single isomer, unassigned; isomer 2) [Example 20, (−)-[1-[3,4-dichlorophenyl)methyl]-2-(1-methylethyl)-4,5,6,7-tetrahydro-1H-benzimidazol-7-yl]acetic acid ammonia salt (Isomer 2)] | ≤ 0.1 µM and ≤ 0.01 µM and ~0.002 µM |
| CC(C)(C)c1nc2c(n1Cc1ccc(Cl)cc1)C(CC(=O)O)CCCC2 (stereo not drawn) [Example 6, [3-[(4-chlorophenyl)methyl]-2-(1,1-dimethylethyl)-3,4,5,6,7,8-hexahydrocyclohepta[d]imidazol-4-yl]acetic acid] | ≤ 0.01 µM |
| CC(C)c1nc2c(n1Cc1ccc(Cl)c(Cl)c1)C(CC(=O)O)CC2 (stereo not drawn) [Example 9, [3-[(3,4-dichlorophenyl)methyl]-2-(1-methylethyl)-3,4,5,6-tetrahydrocyclopenta[d]imidazol-4-yl]acetic acid ammonia salt] | ≤ 0.01 µM |
| CC(C)(C)c1nc2c(n1Cc1ccc(Cl)cc1)C(CC(=O)O)CC2 (stereo not drawn) [Example 14, [3-[(4-chlorophenyl)methyl]-2-(1,1-dimethylethyl)-3,4,5,6-tetrahydrocyclopenta[d]imidazol-4-yl]acetic acid ammonia salt] | ≤ 0.1 µM |
| CC(C)c1nc2c(n1Cc1ccc(Cl)cc1Cl)C(CC(=O)O)CCC2 (stereo not drawn) [Example 18, [1-(2,4-dichlorobenzyl)-2-isopropyl-4,5,6,7-tetrahydro-1H-benzimidazol-7-yl]acetic acid ammonia salt] | ≤ 0.1 µM |
| CC(C)c1nc2c(n1Cc1ccc(Cl)c(Cl)c1)C(CC(=O)O)CCC2 (stereo not drawn) [Example 19, [1-[(3,4-dichlorophenyl)methyl]-2-(1-methylethyl)-4,5,6,7-tetrahydro-1H-benzimidazol-7-yl]acetic acid] | ≤ 0.01 µM |
| O=C(O)CC1CCCc2nc(C3CCCC3)n(Cc3ccc(Cl)cc3)c21 (stereo not drawn) [Example 22, {1-[(4-chlorophenyl)methyl]-2-cyclopentyl-4,5,6,7-tetrahydro-1H-benzimidazol-7-yl}acetic acid ammonia salt] | ≤ 0.1 µM |
| CC(C)(C)c1nc2c(n1Cc1ccc(Cl)cc1)C(CC(=O)O)CCC2 (stereo not drawn) [Example 23, [1-[(4-chlorophenyl)methyl]-2-(1,1-dimethylethyl)-4,5,6,7-tetrahydro-1H-benzimidazol-7-yl]acetic acid, formic acid salt] | ≤ 0.1 µM |
